Results: ChEMBL document CHEMBL3390836, “Mannich- and LedererManasse-based analogues of the natural product S-(+)-curcuphenol as cancer proliferation and migration inhibitors” (Medchemcomm, 2012)

Tests used:
MDA-MB-468 = assay: Cytotoxicity against human MDA-MB-468 cells assessed as cell growth at 10 uM after 48 hrs by SRB assay relative to control; format: functional; settings: MDA-MB-468, 48 h, read-out: Activity
[1] = Cytotoxicity against human PC3 cells assessed as cell growth at 10 uM after 48 hrs by SRB assay relative to control; format: functional; settings: PC-3, 48 h, read-out: Activity
CAKI-1 = assay: Cytotoxicity against human Caki1 cells assessed as cell growth at 10 uM after 48 hrs by SRB assay relative to control; format: functional; settings: CAKI-1, 48 h, read-out: Activity
A498 = assay: Cytotoxicity against human A498 cells assessed as cell growth at 10 uM after 48 hrs by SRB assay relative to control; format: functional; settings: A498, 48 h, read-out: Activity
[2] = Cytotoxicity against human SKOV3 cells assessed as cell growth at 10 uM after 48 hrs by SRB assay relative to control; format: functional; settings: SK-OV-3, 48 h, read-out: Activity
SR = assay: Cytotoxicity against human SR cells assessed as cell growth at 10 uM after 48 hrs by SRB assay relative to control; format: functional; settings: read-out: Activity
DU-145 = assay: Cytotoxicity against human DU145 cells assessed as cell growth at 10 uM after 48 hrs by SRB assay relative to control; format: functional; settings: DU-145, 48 h, read-out: Activity
SF-268 = assay: Cytotoxicity against human SF268 cells assessed as cell growth at 10 uM after 48 hrs by SRB assay relative to control; format: functional; settings: SF-268, 48 h, read-out: Activity
[3] = Cytotoxicity against human UACC257 cells assessed as cell growth at 10 uM after 48 hrs by SRB assay relative to control; format: functional; settings: UACC-257, 48 h, read-out: Activity
SK-MEL-5 = assay: Cytotoxicity against human SK-MEL-5 cells assessed as cell growth at 10 uM after 48 hrs by SRB assay relative to control; format: functional; settings: SK-MEL-5, 48 h, read-out: Activity
MDA-MB-435 = assay: Cytotoxicity against human MDA-MB-435 cells assessed as cell growth at 10 uM after 48 hrs by SRB assay relative to control; format: functional; settings: MDA-MB-435, 48 h, read-out: Activity
M14 = assay: Cytotoxicity against human M14 cells assessed as cell growth at 10 uM after 48 hrs by SRB assay relative to control; format: functional; settings: M14, 48 h, read-out: Activity
U-251 = assay: Cytotoxicity against human U251 cells assessed as cell growth at 10 uM after 48 hrs by SRB assay relative to control; format: functional; settings: U-251, 48 h, read-out: Activity
LOX IMVI = assay: Cytotoxicity against human LOXIMVI cells assessed as cell growth at 10 uM after 48 hrs by SRB assay relative to control; format: functional; settings: read-out: Activity
SNB-75 = assay: Cytotoxicity against human SNB75 cells assessed as cell growth at 10 uM after 48 hrs by SRB assay relative to control; format: functional; settings: SNB-75, 48 h, read-out: Activity
SNB-19 = assay: Cytotoxicity against human SNB19 cells assessed as cell growth at 10 uM after 48 hrs by SRB assay relative to control; format: functional; settings: SNB-19, 48 h, read-out: Activity
KM12 = assay: Cytotoxicity against human KM12 cells assessed as cell growth at 10 uM after 48 hrs by SRB assay relative to control; format: functional; settings: KM12, 48 h, read-out: Activity
NCI-H522 = assay: Cytotoxicity against human NCI-H522 cells assessed as cell growth at 10 uM after 48 hrs by SRB assay relative to control; format: functional; settings: NCI-H522, 48 h, read-out: Activity
NCI-H322M = assay: Cytotoxicity against human NCI-H322M cells assessed as cell growth at 10 uM after 48 hrs by SRB assay relative to control; format: functional; settings: read-out: Activity
A549 = assay: Cytotoxicity against human A549 cells assessed as cell growth at 10 uM after 48 hrs by SRB assay relative to control; format: functional; settings: A549, 48 h, read-out: Activity
K562 = assay: Cytotoxicity against human K562 cells assessed as cell growth at 10 uM after 48 hrs by SRB assay relative to control; format: functional; settings: K562, 48 h, read-out: Activity
HL-60(TB) = assay: Cytotoxicity against human HL-60(TB) cells assessed as cell growth at 10 uM after 48 hrs by SRB assay relative to control; format: functional; settings: HL-60, 48 h, read-out: Activity
CCRF-CEM = assay: Cytotoxicity against human CCRF-CEM cells assessed as cell growth at 10 uM after 48 hrs by SRB assay relative to control; format: functional; settings: read-out: Activity
MDA-MB-231 [4] = assay: Growth inhibition of human MDA-MB-231 cells after 72 hrs by MTT assay; format: functional, cell-based; settings: MDA-MB-231, 72 h
MDA-MB-231 [5] = assay: Antimigratory activity against human MDA-MB-231 cells after 24 hrs by wound-healing assay; format: functional, cell-based; settings: MDA-MB-231, 24 h
BT-549 = assay: Cytotoxicity against human BT549 cells assessed as cell growth at 10 uM after 48 hrs by SRB assay relative to control; format: functional; settings: BT-549, 48 h, read-out: Activity
Malme-3M = assay: Cytotoxicity against human MALME-3M cells assessed as cell growth at 10 uM after 48 hrs by SRB assay relative to control; format: functional; settings: read-out: Activity
HOP-92 = assay: Cytotoxicity against human HOP92 cells assessed as cell growth at 10 uM after 48 hrs by SRB assay relative to control; format: functional; settings: HOP-92, 48 h, read-out: Activity

SMILES | growth at 10 µM (MDA-MB-468) [%] | growth at 10 µM [1] [%] | growth at 10 µM (CAKI-1) [%] | growth at 10 µM (A498) [%] | growth at 10 µM [2] [%] | growth at 10 µM [3] [%] | growth at 10 µM (SK-MEL-5) [%] | growth at 10 µM (MDA-MB-435) [%] | growth at 10 µM (M14) [%] | growth at 10 µM (U-251) [%] | growth at 10 µM (LOX IMVI) [%] | growth at 10 µM (SNB-75) [%] | growth at 10 µM (SNB-19) [%] | growth at 10 µM (KM12) [%] | growth at 10 µM (NCI-H522) [%] | growth at 10 µM (NCI-H322M) [%] | growth at 10 µM (A549) [%] | growth at 10 µM (K562) [%] | growth at 10 µM (HL-60(TB)) [%] | growth at 10 µM (CCRF-CEM) [%] | also measured
COc1ccc(CCNCc2c(C)ccc([C@@H](C)CCC=C(C)C)c2O)cc1OC | 67.9 | 71 | 58.4 | 53.4 | 94.8 | 78.7 | 78 | 97.8 | 91 | 76.7 | 73.7 | 66.1 | 90.8 | 89.9 | 75 | 99 | 85.8 | 44.5 | 85.6 | 80.1 | growth at 10 µM (SR): 53.4%; growth at 10 µM (DU-145): 83.4%; growth at 10 µM (SF-268): 90.7%; IC50 (MDA-MB-231 [4]): > 50 µM; IC50 (MDA-MB-231 [5]): > 20 µM
CC(C)=CCC[C@H](C)c1ccc(C)c(CNCCCCCO)c1O | 79.8 | 79.5 | 75.2 | 82.6 | 99.4 | 93.2 | 84.9 | 95 | 94.3 | 82.9 | 83.1 | 77.2 | 94.6 | 97.3 | 89.2 | 104 | 91.5 | 60.2 | 87.7 | 96.5 | growth at 10 µM (BT-549): 108%; growth at 10 µM (SR): 84%; growth at 10 µM (DU-145): 108%; growth at 10 µM (SF-268): 87.8%; growth at 10 µM (Malme-3M): 106%; IC50 (MDA-MB-231 [4]): 10.7 µM; IC50 (MDA-MB-231 [5]): > 20 µM
CC(C)=CCC[C@H](C)c1ccc(C)c2c1OCN(CCCCC(=O)O)C2 | 87 | 92.3 | 81 | 99.4 | 104 | 89.5 | 92 | 99.4 | 92.5 | 106 | 90.2 | 91.8 | 92.7 | 107 | 44.8 | 112 | 101 | 87.5 | 77.5 | 93.2 | growth at 10 µM (SR): 105%; growth at 10 µM (DU-145): 118%; growth at 10 µM (SF-268): 100%; growth at 10 µM (Malme-3M): 126%; growth at 10 µM (HOP-92): 83.7%; IC50 (MDA-MB-231 [4]): > 50 µM; IC50 (MDA-MB-231 [5]): 29.9 µM
CC(C)=CCC[C@H](C)c1ccc(C)c(CNCCCCC(=O)O)c1O | 100 | 98 | 90.6 | 92.3 | 105 | 101 | 98.4 | 96.1 | 113 | 98.1 | 95 | 95.4 | 103 | 102 | 95.4 | 111 | 95.8 | 96.1 | 84.6 | 97.9 | growth at 10 µM (BT-549): 111%; growth at 10 µM (SR): 85%; growth at 10 µM (DU-145): 110%; growth at 10 µM (SF-268): 105%; IC50 (MDA-MB-231 [4]): > 50 µM; IC50 (MDA-MB-231 [5]): > 20 µM
CC(C)=CCC[C@H](C)c1ccc(C)c2c1OCN(CCO)C2 | 82.5 | 76.9 | 91.6 | 47.2 | 105 | 92.3 | 81.2 | 101 | 90.9 | 85.1 | 100 | 58.7 | 57.9 | 103 | 78.1 | 104 | 82.4 | 77.7 | 90.8 | 87.5 | growth at 10 µM (BT-549): 95.8%; growth at 10 µM (Malme-3M): 89.5%; growth at 10 µM (HOP-92): 4.21%; IC50 (MDA-MB-231 [4]): 20.3 µM; IC50 (MDA-MB-231 [5]): 11.1 µM
CC(C)=CCC[C@H](C)c1ccc(C)c(CNCCO)c1O | 81.7 | 88.1 | 74.6 | 66.5 | 88.9 | 81.7 | 92.5 | 95.8 | 101 | 87.2 | 88.7 | 77.7 | 88.1 | 98.7 | 81.4 | 100 | 94.4 | 76.8 | 92.7 | 102 | growth at 10 µM (SR): 75.7%; growth at 10 µM (DU-145): 98.3%; growth at 10 µM (SF-268): 97.8%; IC50 (MDA-MB-231 [4]): 14.4 µM; IC50 (MDA-MB-231 [5]): > 20 µM
